Test [1] concerns IICR (IP3 induced calcium release) in CHO cells. In words: Assay of IICR (IP3 induced calcium release)-inhibiting action. It is filed as cell-based, Chinese hamster. The settings on record: CHO cells, 10 μM ATP. An outline of the steps:
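CHO cell medium replaced with calcium-containing BSS; compound added 1 min later, then 10 μM ATP after a further 2 min. Percent inhibition of the ATP-evoked rise in intracellular calcium determined at each compound concentration.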

The next test concerns the target TGase (Cavia porcellus, UniProt P08587). It is filed as biochemical. The settings on record: level with DMSO control designated as 100. How it is done:
An enzyme reaction solution (0.1 ml) (100 mM HEPES-NaOH, pH 7.5, 1 mM CaCl2, 20 μM monodansyl cadaverine, 0.05 mg/ml N,N-dimethylcasein, 5 μg/ml TGase) was introduced into wells of a 96-well plate (Nunc, 96 Well Black Plate with Clear Bottom). A test compound was added in concentrations of 0.3, 1.0, 3.0, 10, and 30 μM. The solution and the compound were sufficiently mixed while preventing foaming. The plate was set in the fluorescence drug screening system FDSS 3000 (Hamamatsu Photonics K.K.). TGase-inhibiting activity of the compound was calculated by assaying changes in fluorescence wavelength (at 340 nm) per unit time. […] The assay level at which TGase activity decreased by half in the presence of the test compound was designated as TG 50.
Hereafter, the numerals in parentheses written after the TG level, the SOCE level, and the IICR level correspond to the test compound concentrations. The number following the name of each title compound used in the Examples below represents a compound ID number designated arbitrarily by the present inventors.

Test [2] relates to SOCE (store operated calcium entry) in CHO cells. As to the kind of experiment: Assay of SOCE (store operated calcium entry)-inhibiting action. It is filed as cell-based, Chinese hamster. The settings on record: CHO cells, thapsigargin. Summed up:
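CHO cells in calcium-free BSS received compound, then 1 μM thapsigargin 2 min later to deplete stores; after 9 min, 2 mM calcium chloride (final) added. Percent inhibition of the rise in intracellular calcium determined at various compound concentrations.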

Like-named read-outs stand apart in the source and are kept apart here.

With “2-(N-isopropyl-2-hydroxyethyl)aminoethylferrocenylketone [Example 287]”, the “IICR level (percentage of inhibition)” value in test [1] (test compound 10 μmol) was determined as 20%; in test [1] (test compound 30 μmol), 40%; in test [1] (test compound 100 μmol), 40%. Besides, the TG level at TGase (test compound 3 μmol) came out at 100; at TGase (test compound 30 μmol), 60.8. Further, the “SOCE level (percentage of inhibition)” value is listed as 0% in test [2] (test compound 30 μmol) and 10% in test [2] (test compound 100 μmol).
With “2-(N-isopropylbenzyl)aminoethyl-1-methyl-2-pyrrylketone [Example 195]”, the “IICR level (percentage of inhibition)” value in test [1] (test compound 10 μmol), in test [1] (test compound 30 μmol) and in test [1] (test compound 100 μmol) was 0% in each case. Also, the TG level is on record as 73 on TGase (test compound 3 μmol), 62.6 on TGase (test compound 10 μmol) and 6.4 on TGase (test compound 30 μmol). Moreover, the figures for the “SOCE level (percentage of inhibition)” value in test [2] (test compound 10 μmol), in test [2] (test compound 30 μmol) and in test [2] (test compound 100 μmol) were 0%, 0% and 10%, respectively.
With “2-(N-isopropylbenzyl)aminoethylferrocenylketone [Example 286]”, the “IICR level (percentage of inhibition)” value in test [1] (test compound 10 μmol) amounted to 50%; in test [1] (test compound 30 μmol), 80%; in test [1] (test compound 100 μmol), 50%. Moreover, the TG level at TGase (test compound 3 μmol) is recorded as 99.2; at TGase (test compound 30 μmol), 54.2. In addition, the “SOCE level (percentage of inhibition)” value in test [2] (test compound 30 μmol) and in test [2] (test compound 100 μmol) was 0% in each case.
For the compound “2-bis(N-2-hydroxyethyl)aminoethylferrocenylketone [Example 288]”, the “IICR level (percentage of inhibition)” value is on record as 40% in test [1] (test compound 10 μmol), 50% in test [1] (test compound 30 μmol) and 60% in test [1] (test compound 100 μmol). The TG level on TGase (test compound 3 μmol) is 94.9; on TGase (test compound 30 μmol), 44.1. For the same compound, the figures for the “SOCE level (percentage of inhibition)” value in test [2] (test compound 30 μmol) and in test [2] (test compound 100 μmol) were 10% and 40%, respectively.
As to `O=C(CCNCCSSCCNCCC(=O)c1ccc(Br)s1)c1ccc(Br)s1` [Example 340], the entries for the “IICR level (percentage of inhibition)” value in test [1] (test compound 10 μmol), in test [1] (test compound 30 μmol) and in test [1] (test compound 100 μmol) were 0%, 40% and 60%, respectively. Moreover, the TG level at TGase (test compound 3 μmol) is recorded as 0.8; on TGase (test compound 10 μmol) it was 2.5; on TGase (test compound 30 μmol), 4.3. The “SOCE level (percentage of inhibition)” value in test [2] (test compound 10 μmol) was 0%; in test [2] (test compound 30 μmol), 18%; in test [2] (test compound 100 μmol), 65%.
Regarding `O=C(CCNCCCCNCCC(=O)c1ccc(Br)s1)c1ccc(Br)s1` [Example 356], the figures for the “IICR level (percentage of inhibition)” value in test [1] (test compound 10 μmol), in test [1] (test compound 30 μmol) and in test [1] (test compound 100 μmol) were 0%, 0% and 10%, respectively. In addition, the TG level at TGase (test compound 3 μmol) is 93; on TGase (test compound 10 μmol) it was 22.6; on TGase (test compound 30 μmol) it was 3.6. For the same compound, the “SOCE level (percentage of inhibition)” value in test [2] (test compound 10 μmol) turned out to be 0%; in test [2] (test compound 30 μmol), 3%; in test [2] (test compound 100 μmol), 10%.
On to `O=C(CCNCCSSCCNCCC(=O)c1cccs1)c1cccs1` [Example 369], for which the “IICR level (percentage of inhibition)” value in test [1] (test compound 10 μmol) worked out at 0%; in test [1] (test compound 30 μmol), 0%; in test [1] (test compound 100 μmol), 70%. Moreover, the TG level on TGase (test compound 3 μmol) is recorded as 95.1; on TGase (test compound 30 μmol) it was −64.9. Moreover, the entries for the “SOCE level (percentage of inhibition)” value in test [2] (test compound 10 μmol), in test [2] (test compound 30 μmol) and in test [2] (test compound 100 μmol) were 20%, 40% and 50%, respectively.
Consider `O=C(CCNCCSSCCNCCC(=O)c1ccc2ccccc2c1)c1ccc2ccccc2c1` [Example 370], for which the figures for the “IICR level (percentage of inhibition)” value in test [1] (test compound 10 μmol), in test [1] (test compound 30 μmol) and in test [1] (test compound 100 μmol) were 0%, 0% and 29%, respectively. Also, the TG level was 36 on TGase (test compound 3 μmol) and 1.6 at TGase (test compound 30 μmol). Moreover, the “SOCE level (percentage of inhibition)” value in test [2] (test compound 10 μmol) came to 0%; in test [2] (test compound 30 μmol), 0%; in test [2] (test compound 100 μmol) it was 3%.

Values taken from US8937091B2 (Japan Science and Technology Agency, priority 2009, dated 2015).
